Experimental data from patent US5330897A, “Sialic acid binding lectin of protozoan origin” (South Alabama Medical Science Foundation, priority 1992, dated 1994).

Key:
[1] = tested on: T. mobilensis lectin; test: Inhibition of T. mobilensis lectin-mediated hemagglutination; format: biochemical, Tritrichomonas mobilensis; conditions: for Minimal Inhibitory Conc.: 2 units of hemagglutinin
[2] = tested on: T. foetus cell-free lysate hemagglutinin; test: Inhibition of HA activity of T. foetus cell-free lysate; format: biochemical, Tritrichomonas foetus
[3] = tested on: T. augusta cell-free lysate hemagglutinin; test: Inhibition of HA activity of T. augusta cell-free lysate; format: biochemical, Tritrichomonas augusta
[4] = tested on: T. mobilensis cell-free lysate hemagglutinin; test: Inhibition of HA activity of T. mobilensis cell-free lysate; format: biochemical, Tritrichomonas mobilensis
[5] = tested on: live cells of T. foetus; test: Inhibition of HA by live cells of T. foetus; format: cell-based, Tritrichomonas foetus

Q: How did the “Minimal Inhibitory Conc.” value ([1]; carbohydrates) turn out when `O=P(O)(O)OC[C@H]1OC(O)[C@@H](O)[C@@H](O)[C@@H]1O` (some centres unmarked) [Mannose-6-phosphate] was run?
A: > 100 mM

Q: With `OC1OC[C@@H](O)[C@H](O)[C@H]1O` (stereo partly drawn) [D-xylose] as the molecule, how does the “Minimal Inhibitory Conc.” value ([1]; carbohydrates) read?
A: > 100 mM

Q: What about the “Conc. required to inhibit 2 HA units, T. foetus” value ([2]; carbohydrates, […]) of the same molecule?
A: > 200 µg/mL

Q: What about the “Conc. required to inhibit 2 HA units, T. augusta” value ([3]; carbohydrates, […]) of the same molecule?
A: > 200 µg/mL

Q: What about the “Conc. required to inhibit 2 HA units, T. mobilensis” value ([4]; carbohydrates, […]) of the same molecule?
A: > 200 µg/mL

Q: “Bovine Albumin: glycoprotein or protein tested as inhibitor” was tested. Which “Minimal Inhibitory Conc.” value ([1]; glycoproteins or proteins) did it give?
A: > 1000 µg/mL

Q: How did the “Minimal Inhibitory Conc.” value ([1]; glycoproteins or proteins) turn out when “Lysozyme: glycoprotein or protein tested as inhibitor” was run?
A: > 1000 µg/mL

Q: How did the “Minimal Inhibitory Conc.” value ([1]; carbohydrates) turn out when `OC[C@H]1O[C@@](CO)(O[C@H]2O[C@H](CO)[C@@H](O)[C@H](O)[C@H]2O)[C@@H](O)[C@@H]1O` [Sucrose] was run?
A: > 100 mM

Q: What about the “Conc. required to inhibit 2 HA units, T. foetus” value ([2]; carbohydrates, […]) of the same molecule?
A: > 200 µg/mL

Q: What about the “Conc. required to inhibit 2 HA units, T. augusta” value ([3]; carbohydrates, […]) of the same molecule?
A: > 200 µg/mL

Q: What about the “Conc. required to inhibit 2 HA units, T. mobilensis” value ([4]; carbohydrates, […]) of the same molecule?
A: > 200 µg/mL

Q: How did the “Minimal Inhibitory Conc.” value ([1]; carbohydrates) turn out when `O=C(O)[C@H]1OC(O)[C@H](O)[C@@H](O)[C@H]1O` (stereo partly drawn) [D-galacturonic acid] was run?
A: > 100 mM

Q: Laminin was tested. Which “Minimal Inhibitory Conc.” value ([1]; glycoproteins or proteins) did it give?
A: 6.8 µg/mL

Q: `CC(=O)NC1C(O)CC(OC2C(O)C(CO)OC(OC3C(CO)OC(O)C(O)C3O)C2O)(C(=O)O)OC1C(O)C(O)CO` (centres unmarked) [3'-sialyllactose] was tested. Which “Minimal Inhibitory Conc.” value ([1]; carbohydrates) did it give?
A: 2.0 mM

Q: `O=C(CO)[C@@H](O)[C@H](O)[C@H](O)CO` [D-fructose] was tested. Which “Minimal Inhibitory Conc.” value ([1]; carbohydrates) did it give?
A: > 100 mM

Q: What about the “Conc. required to inhibit 2 HA units, T. foetus” value ([2]; carbohydrates, […]) of the same molecule?
A: > 200 µg/mL

Q: What about the “Conc. required to inhibit 2 HA units, T. augusta” value ([3]; carbohydrates, […]) of the same molecule?
A: > 200 µg/mL

Q: What about the “Conc. required to inhibit 2 HA units, T. mobilensis” value ([4]; carbohydrates, […]) of the same molecule?
A: > 200 µg/mL

Q: With Fibronectin as the molecule, how does the “Minimal Inhibitory Conc.” value ([1]; glycoproteins or proteins) read?
A: > 333 µg/mL

Q: Which “Minimal Inhibitory Conc.” value ([1]; carbohydrates) does the source give for glucuronic acid here?
A: > 100 mM

Q: For “Avidin: glycoprotein or protein tested as inhibitor”, which “Minimal Inhibitory Conc.” value ([1]; glycoproteins or proteins) is on record?
A: > 1000 µg/mL

Q: With `OC1OC[C@@H](O)[C@@H](O)[C@@H]1O` (stereo partly drawn) [D-arabinose] as the molecule, how does the “Minimal Inhibitory Conc.” value ([1]; carbohydrates) read?
A: > 100 mM

Q: What about the “Conc. required to inhibit 2 HA units, T. foetus” value ([2]; carbohydrates, […]) of the same molecule?
A: > 200 µg/mL

Q: What about the “Conc. required to inhibit 2 HA units, T. augusta” value ([3]; carbohydrates, […]) of the same molecule?
A: > 200 µg/mL

Q: And the “Conc. required to inhibit 2 HA units, T. mobilensis” value ([4]; carbohydrates, […])?
A: > 200 µg/mL

Q: “Orosomucoid: sialoconjugate (sialoglycoprotein)” was tested. Which “Conc. required to inhibit 2 HA units, T. foetus” value ([2]; sialoglycoproteins) did it give?
A: 150 µg/mL

Q: And the “Conc. required to inhibit 2 HA units, T. augusta” value ([3]; sialoglycoproteins)?
A: 150 µg/mL

Q: What about the “Conc. required to Inhibit 2 HA Units” value [5] of the same molecule?
A: 500 µg/mL

Q: And the “Conc. required to inhibit 2 HA units, T. mobilensis” value ([4]; sialoglycoproteins)?
A: 150 µg/mL

Q: How did the “Inhibition of hemagglutination by gangliosides” value ([1]; at mg/ml concentrations) turn out when GD1A was run?
A: did not inhibit

Q: `CC(=O)N[C@H]1C(O)O[C@H](CO)[C@@H](O)[C@@H]1O[C@H](C)C(=O)O` (some centres unmarked) [N-acetylmuramic acid] was tested. Which “Minimal Inhibitory Conc.” value ([1]; carbohydrates) did it give?
A: > 100 mM

Q: How did the “Minimal Inhibitory Conc.” value ([1]; glycoproteins or proteins) turn out when “Egg Albumin: glycoprotein or protein tested as inhibitor” was run?
A: > 1000 µg/mL

Q: How did the “Minimal Inhibitory Conc.” value ([1]; glycoproteins or proteins) turn out when Bovine submaxillary mucin was run?
A: 0.65 µg/mL

Q: What about the “Conc. required to inhibit 2 HA units, T. foetus” value ([2]; sialoglycoproteins) of the same molecule?
A: 60 µg/mL

Q: What about the “Conc. required to inhibit 2 HA units, T. augusta” value ([3]; sialoglycoproteins) of the same molecule?
A: 40 µg/mL

Q: What about the “Conc. required to Inhibit 2 HA Units” value [5] of the same molecule?
A: 125 µg/mL

Q: And the “Conc. required to inhibit 2 HA units, T. mobilensis” value ([4]; sialoglycoproteins)?
A: 60 µg/mL

Q: Which “Minimal Inhibitory Conc.” value ([1]; carbohydrates) does the source give for `O=P(O)(O)OC1O[C@H](CO)[C@@H](O)[C@H](O)[C@@H]1O` (some centres unmarked) [mannose-1-phosphate] here?
A: > 100 mM

Q: `COC(=O)C1(OC)CC(O)C(NC(C)=O)C(C(O)C(O)CO)O1` (stereo not drawn) [N-acetylneuraminic acid methyl ester, β-methyl glycoside] was tested. Which “Minimal Inhibitory Conc.” value ([1]; carbohydrates) did it give?
A: > 100 mM

Q: For `OC[C@H]1O[C@H](O[C@H]2[C@H](O)[C@@H](O)C(O)O[C@@H]2CO)[C@H](O)[C@@H](O)[C@@H]1O` (mixture of isomers) [Maltose], which “Minimal Inhibitory Conc.” value ([1]; carbohydrates) is on record?
A: > 100 mM

Q: `CC(=O)N[C@H]1[C@@H](O)[C@H](O)[C@@H](CO)O[C@H]1O` [N-acetyl-β-D-mannosamine] was tested. Which “Minimal Inhibitory Conc.” value ([1]; carbohydrates) did it give?
A: > 100 mM

Q: With `COC1(C(=O)O)CC(O)C(NC(C)=O)C(C(O)C(O)CO)O1` (stereo not drawn) [N-acetylneruaminic acid β-methyl glycoside] as the molecule, how does the “Minimal Inhibitory Conc.” value ([1]; carbohydrates) read?
A: > 100 mM

Q: How did the “Minimal Inhibitory Conc.” value ([1]; carbohydrates) turn out when `CC(=O)N[C@H]1[C@H](O[C@H]2[C@H](O)[C@@H](NC(C)=O)C(O)O[C@@H]2CO)O[C@H](CO)[C@@H](O)[C@@H]1O` (some centres unmarked) [N,N-diacetyl chitobiose] was run?
A: > 100 mM

Q: For `CC(=O)NC1C(O)CC(OCC2OC(OC3C(CO)OC(O)C(O)C3O)C(O)C(O)C2O)(C(=O)O)OC1C(O)C(O)CO` (centres unmarked) [6'-sialyllactose], which “Minimal Inhibitory Conc.” value ([1]; carbohydrates) is on record?
A: 1.0 mM

Q: Which results are given for `OC[C@H]1OC(O)[C@H](O)[C@@H](O)[C@@H]1O` (stereo partly drawn) [D-glucose]?
A: Minimal Inhibitory Conc. ([1]; carbohydrates): > 100 mM; Conc. required to inhibit 2 HA units, T. foetus ([2]; carbohydrates, […]): > 200 µg/mL; Conc. required to inhibit 2 HA units, T. augusta ([3]; carbohydrates, […]): > 200 µg/mL; Conc. required to inhibit 2 HA units, T. mobilensis ([4]; carbohydrates, […]): > 200 µg/mL

B1: Asialofetuin: asialo- analog of fetuin (protein, UniProt P12763 19-359, looked up)
Alpha-2-HS-glycoprotein: IPLDPVAGYKEPACDDPDTEQAALAAVDYINKHLPRGYKHTLNQIDSVKVWPRRPTGEVYDIEIDTLETTCHVLDPTPLANCSVRQQTQHAVEGDCDIHVLKQDGQFSVLFTKCDSSPDSAEDVRKLCPDCPLLAPLNDSRVVHAVEVALATFNAESNGSYLQLVEISRAQFVPLPVSVSVEFAVAATDCIAKEVVDPTKCNLLAEKQYGFCKGSVIQKALGGEDVRVTCTLFQTQPVIPQPQPDGAEAEAPSAVPDAAGPTPSAAGPPVASVVVGPSVVAVPLPLHRAHYDLRHTFSGVASVESSSGEAFHVGKTPIVGQPSIPGGPVRLCPGRIRYFKI
modifications: desialylated
notes: asialo- analog of fetuin
Q: For B1, which “Minimal Inhibitory Conc.” value ([1]; glycoproteins or proteins) is on record?
A: 26.0 µg/mL

B2: Glycophorin: a major sialoglycoprotein of erythrocyte membranes (protein, UniProt P02724 20-150, looked up)
Glycophorin-A: LSTTEVAMHTSTSSSVTKSYISSQTNDTHKRDTYAATPRAHEVSEISVRTVYPPEEETGERVQLAHHFSEPEITLIIFGVMAGVIGTILLISYGIRRLIKKSPSDVKPLPSPDTDVPLSSVEIENPETSDQ
Q: Which “Minimal Inhibitory Conc.” value ([1]; glycoproteins or proteins) does the source give for B2 here?
A: 0.42 µg/mL

Q: What about the “Conc. required to inhibit 2 HA units, T. foetus” value ([2]; sialoglycoproteins) of the same molecule?
A: 10 µg/mL

Q: And the “Conc. required to inhibit 2 HA units, T. augusta” value ([3]; sialoglycoproteins)?
A: 10 µg/mL

Q: And the “Conc. required to Inhibit 2 HA Units” value [5]?
A: 10 µg/mL

Q: And the “Conc. required to inhibit 2 HA units, T. mobilensis” value ([4]; sialoglycoproteins)?
A: 10 µg/mL

B3: Asialoglycophorin: glycophorin lacking the sialic acid (protein, UniProt P02724 20-150, looked up)
Glycophorin-A: LSTTEVAMHTSTSSSVTKSYISSQTNDTHKRDTYAATPRAHEVSEISVRTVYPPEEETGERVQLAHHFSEPEITLIIFGVMAGVIGTILLISYGIRRLIKKSPSDVKPLPSPDTDVPLSSVEIENPETSDQ
modifications: desialylated
notes: glycophorin lacking the sialic acid
Q: What does the source list for B3?
A: Minimal Inhibitory Conc. ([1]; glycoproteins or proteins): 83.3 µg/mL; Conc. required to inhibit 2 HA units, T. foetus ([2]; sialoglycoproteins): 500 µg/mL; Conc. required to inhibit 2 HA units, T. augusta ([3]; sialoglycoproteins): 500 µg/mL; Conc. required to Inhibit 2 HA Units [5]: 500 µg/mL; Conc. required to inhibit 2 HA units, T. mobilensis ([4]; sialoglycoproteins): 500 µg/mL
